Data set [1] deals with cellular PARP activity in EBV-BL. The data set is described as follows: Cellular PARP activity assay (PAR levels, HT PARP In vivo Pharmacodynamic Assay). The class given is cell-based, human. How it is done:
Cellular PARP activity was determined by measuring net PAR expression using HT PARP In vivo Pharmacodynamic Assay (Trevigen) as specified by the manufacturer. PAR levels in samples were calculated using standard curves and normalized using protein concentration. Protein concentration was measured with Lowry protocol using RC DC Protein Assay Kits (Bio-Rad).

For data set [2], the system named is WT E14 mES cells. The data set can be described thus: Clonogenic survival assay, mES cells. The data set is classed as cell-based. Conditions: Mus musculus, read-out: IC50 (clonogenic survival). The text has this: (§1) Human mammary epithelial cell lines used included non-tumorigenic diploid MCF-10A, HMEC-hTERT and tumorigenic MDA-MB-468 (basal) and MCF-7 (luminal). […] Blood samples were obtained from normal donor participants. The participants provided written informed consent to IRB protocol #95–054 approved by the Institutional Review Board at MSKCC. The original signed consent is then sent to the research participant’s medical record and a copy of the consent is given to the participant. The EBV-transformed B-lymphocyte cell line (EBV-BL) was generated by transformation of peripheral blood mononuclear cells (PBMC) with the B95.8 strain of EBV, as previously described. Primary T cells were generated from PBMC from two normal donors by non-specific activation with phytohemagglutinin and cultured in RPMI1640 and human serum AB for 4–14 days before use. E14 mES cell line was provided by M. Hooper, Brca1^-/- 236.44 mES cell line was provided by B. H. Koller, Brca2^lex1/lex2 mES cell line was provided by P. Hasty and Lexicon Genetics. E14 wild-type, Brca1^-/- 236.44, and Brca2^lex1/lex2 mES cell lines were cultured in standard ES media. Brca1^-/- 236.44 cells express a BRCA1 peptide deleted for sequences encoded by exon 11 [52], while Brca2^lex1/lex2 cells express a BRCA2 peptide deleted for the terminal exon 27 [53]. […] Veliparib and BSI-201 were purchased from Chemie Tek. The compounds were dissolved in DMSO and PBS. For clonogenic survival assays, MCF-10A (1000 cells), HMEC-hTERT (1000 cells), MDA-MB-468 (1500 cells) and mouse ES cell (2000 cells) were seeded, vehicle control or inhibitors were added at the indicated concentration 24 hours after seeding and changed every three days for continuous treatment. At 7–14 days, colonies were fixed with methanol and stained with Giemsa. For EBV-BL (6 × 10^6) and primary T cells (3.6 × 10^6) were continuously exposed to the indicated concentration of drug for 10 days at 0.6 × 10^6 cells/ml. Viable cells were scored by trypan blue exclusion.

Data set [3] has as its system EBV-BL. The data set is described as follows: Survival, trypan blue exclusion test of cell viability. The class given is cell-based, human. Particulars: Homo sapiens, 240 h, continuous exposure 10 days, trypan blue exclusion.
Text: as §1

The test system of data set [4] is Brca1^-/- 236.44 mES cells. The data set can be described thus: Clonogenic survival assay, mES cells. Conditions: for IC50: Mus musculus, read-out: IC50 (clonogenic survival). The data set is classed as cell-based, mouse.
Text: as §1

Data set [5] concerns Brca2^lex1/lex2 mES cells. The data set is described as follows: Clonogenic survival assay, mES cells. The class given is cell-based, mouse. Conditions: for IC50: Mus musculus, read-out: IC50 (clonogenic survival).
Text: as §1

Data set [6] deals with MCF-10A. The data set can be described thus: Clonogenic survival assay. The data set is classed as cell-based, human. How it is done:
Clonogenic survival was assessed by colony counting at 9 days. […] Viable cells were scored and enumerated by trypan blue exclusion at 7 days. Means with SD are shown (MCF-10A: n = 3, primary T cell 1: n = 2). […] Fold increases of SCE per chromosome compared with no treatment or 0.5 μM cisplatin are shown for each cell type. Approximately 50 metaphases were counted for each cell. Error bars depict the mean with SD. Asterisks designate statistical significance for unpaired t-test at P < 0.0001. C. […] One hundred metaphases were counted for each exposure. Fold increases of chromatid-type aberrations per chromosome compared with no treatment or 0.5 μM cisplatin are shown for each cell type. The y-axis is the number of total chromatid-type aberrations per chromosome for each metaphase counted. Error bars indicate mean with SEM. The P-values were calculated using unpaired t-test.
(§2) Human mammary epithelial cell lines used included non-tumorigenic diploid MCF-10A, HMEC-hTERT and tumorigenic MDA-MB-468 (basal) and MCF-7 (luminal). […] Blood samples were obtained from normal donor participants. The participants provided written informed consent to IRB protocol #95–054 approved by the Institutional Review Board at MSKCC. The original signed consent is then sent to the research participant’s medical record and a copy of the consent is given to the participant. The EBV-transformed B-lymphocyte cell line (EBV-BL) was generated by transformation of peripheral blood mononuclear cells (PBMC) with the B95.8 strain of EBV, as previously described. Primary T cells were generated from PBMC from two normal donors by non-specific activation with phytohemagglutinin and cultured in RPMI1640 and human serum AB for 4–14 days before use. E14 mES cell line was provided by M. Hooper, Brca1^-/- 236.44 mES cell line was provided by B. H. Koller, Brca2^lex1/lex2 mES cell line was provided by P. Hasty and Lexicon Genetics. E14 wild-type, Brca1^-/- 236.44, and Brca2^lex1/lex2 mES cell lines were cultured in standard ES media. Brca1^-/- 236.44 cells express a BRCA1 peptide deleted for sequences encoded by exon 11 [52], while Brca2^lex1/lex2 cells express a BRCA2 peptide deleted for the terminal exon 27 [53]. Olaparib was synthesized in the MSKCC Organic chemistry core facility. Veliparib and BSI-201 were purchased from Chemie Tek. The compounds were dissolved in DMSO and PBS. For clonogenic survival assays, MCF-10A (1000 cells), HMEC-hTERT (1000 cells), MDA-MB-468 (1500 cells) and mouse ES cell (2000 cells) were seeded, vehicle control or inhibitors were added at the indicated concentration 24 hours after seeding and changed every three days for continuous treatment. At 7–14 days, colonies were fixed with methanol and stained with Giemsa. For EBV-BL (6 × 10^6) and primary T cells (3.6 × 10^6) were continuously exposed to the indicated concentration of drug for 10 days at 0.6 × 10^6 cells/ml. Viable cells were scored by trypan blue exclusion.

The subject of data set [7] is MCF-10A. The data set is described as follows: Sister chromatid exchange (SCE) assay, BrdU differential staining. The class given is cell-based, human.
Text: as §2
(§3) To prepare metaphase spreads, exponentially growing cells were treated with 0.1–0.3 μg/ml of colcemid for 1–6 hr. Cells were collected and incubated in hypotonic solution (0.56% KCl), fixed in methanol: acetic acid (3:1), spotted to slides and air-dried. To measure chromosomal aberrations, the slides were stained with 2% Giemsa/Sorensen’s buffer. To visualize SCEs, the doubling time for each cell type was determined. Cells were incubated with 10 μM BrdU for two cell cycles. After metaphase spreads were prepared, the slides were treated with 0.5 μg/ml Hoechst 33258. The slides were exposed to black light for 20–60 min, incubated at 60°C for 2 hr, and stained in 4–10% Giemsa/Sorensen’s buffer.

For data set [8], the system named is EBV-BL. The data set is described as above. The data set is classed as cell-based, human.
Text: as §2, §3

In data set [9] the test system is BRCA-deficient mES cells. Set-up: method as in PMID 15829967. Conditions: cited from earlier work.
The test system of data set [10] is primary T cell 1. The data set can be described thus: Chromosomal aberrations on metaphase spreads (Giemsa). The class given is cell-based, human. Conditions: 0.5 μM cisplatin alone, 24 hr. How it is done: as §3
The test system of data set [11] is primary T cell 1. The data set is described as follows: Survival, trypan blue exclusion. The class given is cell-based, human. Particulars: first 24 hr, trypan blue exclusion at 7 days, read-out: IC50 (survival), cisplatin alone. How it is done: A. […] Viable cells were scored and enumerated by trypan blue exclusion at 7 days. […] Approximately 50 metaphases were counted for each cell. Error bars depict the mean with SD. Asterisks designate statistical significance for unpaired t-test at P < 0.0001. C. […] One hundred metaphases were counted for each exposure. […] The y-axis is the number of total chromatid-type aberrations per chromosome for each metaphase counted. Error bars indicate mean with SEM. The P-values were calculated using unpaired t-test.

The subject of data set [12] is primary T cell 1. The data set can be described thus: Sister chromatid exchange (SCE) assay, BrdU differential staining. Conditions: 0.5 μM cisplatin alone, first 24hr. The data set is classed as cell-based, human.
Text: as §2, §3

Setting [13] is: Homo sapiens, continuous exposure, clonogenic survival assay, read-out: IC50 (cell survival).

The values below come from PMC4948780, “PARP Inhibitors in Clinical Use Induce Genomic Instability in Normal Human Cells” (PLoS ONE, 2016).

Values joined by “and” are separate entries in the source; they are usually repeats but may differ in a detail not shown here. Equal entries are not always repeated. Where two headings read alike, the source gives them in different places.

As for `NC(=O)c1ccc(I)c([N+](=O)[O-])c1` [BSI-201], in data set [1] (EBV-BL, 24 hr, BSI-201 treated, vs untreated cells), the “decrease of PARP activity” value is given as ~ 60%. Besides, the IC50 amounted to 111 µM in data set [2] (wild-type E14 mES cells); 48.9 µM in [3] (EBV-BL, read-out: IC50 (cell survival)); 74 µM in [4] (Brca1^-/- 236.44 mES cells); 70 µM in [5] (Brca2^lex1/lex2 mES cells); 56 µM in [6] (setting [13]). Moreover, the “enhanced sensitivity of cells lacking wild-type BRCA1 vs wild-type cells” value in data set [4] (ratio of IC50, wild-type / Brca1^-/- 236.44) stood at 1.5 fold. The “enhanced sensitivity of cells lacking wild-type BRCA2 vs wild-type cells” value in data set [5] (ratio of IC50, wild-type / Brca2^lex1/lex2) came to 1.6 fold. The “Mean no. SCE / metaphase ± SD” value in [7] (20 μM) was determined as 7.9 ± 2.9; in data set [7] (40 μM), 8.6 ± 2.9; in data set [7] (80 μM), 9.4 ± 2.6; in data set [8] (20 μM), 8.4 ± 3.6; in [8] (40 μM) it was 9.4 ± 2.9; in [8] (80 μM) it was 16.6 ± 4.2.

For `O=C1CCC(=O)N1c1cc(Cc2n[nH]c(=O)c3ccccc23)ccc1F` [KU0058684], in [9], the “sensitivity of BRCA-deficient mES cells” value is reported as “marked hypersensitivity”.

Regarding `O=C(c1cc(Cc2n[nH]c(=O)c3ccccc23)ccc1F)N1CCCNCC1` [KU0058948], in data set [9], the “sensitivity of BRCA-deficient mES cells” value is recorded as “marked hypersensitivity”.

In the case of `N.N.[Cl][Pt][Cl]` [cisplatin], in [6] (cisplatin first 30 hr, colony counting at 9 days, read-out: IC50 (survival), cisplatin alone), the concentration for half-maximal inhibition (IC50) amounted to 3.4 µM. In [10], the “Fold increase of chromatid-type aberrations per chromosome compared with no treatment” value came out at 2 fold and the “total chromatid-type aberrations / metaphase (mean ± SEM)” value is 0.38 ± 0.07. Besides, in data set [10] (100 metaphases), the chromatid-type gap/break is 36, the chromatid-type radial chromosome turned out to be 1, the chromatid-type telomere association was found to be 0 and the chromosome-type dicentric stood at 1. In data set [10] (100 metaphases), this compound gave a chromosome-type gap/break of 6 and a total chromatid-type aberrations of 38. Further, the IC50 in [11] came out at 1.74 µM. In addition, in data set [12], the “Fold increase of SCE per chromosome compared with no treatment” value was found to be 3.8 fold, the “Mean no. SCE / chromosome ± SD” value was 0.79 ± 0.23 and the “Mean no. SCE / metaphase ± SD” value came out at 36.6 ± 10.8. In data set [7] (0.5 μM cisplatin alone, 30 hr), the “Fold increase of SCE per chromosome compared with no treatment” value was found to be 6.3 fold, the “Mean no. SCE / chromosome ± SD” value was found to be 1.03 ± 0.12 and the “Mean no. SCE / metaphase ± SD” value is recorded as 47.7 ± 5.5.

Regarding `C[C@]1(c2nc3c(C(N)=O)cccc3[nH]2)CCCN1` [veliparib], the “decrease of PARP activity” value in [1] is ~ 98% and > 99%. The IC50 worked out at 1.6 µM in data set [2]; 42.5 µM in data set [3] (read-out: IC50 (cell survival), EBV-BL); 0.0097 µM in [4]; 0.171 µM in data set [5]; 69.1 µM in data set [6] (setting [13]). In addition, the “Mean no. SCE / metaphase ± SD” value is given as 26.9 ± 6.6 in data set [7] (1.5 μM), 51.3 ± 9.4 in data set [7] (10 μM), 18.7 ± 4.6 in data set [8] (1.5 μM) and 32.2 ± 7.2 in data set [8] (10 μM).

For orientation: IC50 means the midpoint of a concentration-inhibition curve.
